The source of these data is patent US5736565A, “Therapeutic compounds suitable for the treatment of diseases connected with glutathione deficiency, process for their preparation, and pharmaceutical compositions containing same” (Prospa B.V., priority 1992, dated 1998).

Several values for one entry are separate records, joined by “and”; a condition that tells them apart may be missing. Equal entries are not always repeated. Entries after “also recorded” stand apart in the source; their conditions may differ. Peptide text beside a SMILES is read from it.

Test [1] concerns peripheral lymphocytes. The test is described as follows: Blastization with phytohaemagglutinin (PHA) of peripheral lymphocytes of PSC-treated rats. The test is classed as in vivo, Sprague-Dawley rats. Particulars: 600 mg/kg i.p. 15 days + PHA. The protocol:
Sprague-Dawley rats (Charles River, Calco (CO)), aged 10 weeks (young adults) and 24 months (old), were stabled under standard conditions (24°±1° C., 12 h light/dark cycle, free access to food and water). Handlings were made in such a way as to avoid stressful stimuli.
The animals were stabled in groups of 6 per cage and treated for 2 weeks (15 days) with a PSC daily dose of 600 mg/kg by intraperitoneal route (i.p.).
Once the treatment with PSC previously described in the paragraph "Animals" was completed, the animals, both young and old, were sacrificed by decapitation and the blood collected in heparin-treated tubes. The blood samples were stratified on Ficoll-Paque gradient and centrifuged at 2500 rpm for 15 min. The lymphocytic cellular fraction was taken by suction and washed three times with a Lphysiological solution (0.9% NaCl). At the end of the treatment, the cells were resuspended in culture medium RPMI 1640 containing 10% FBS, counted (1×10^5 cells/0.1 ml/well) and incubated for 48 hrs at 37° C., in a 5% carbon dioxide environment. At the incubation end, mitogens concavaline A (ConA) and phytohaemagglutinin (PHA) were added to the cultures at a concentration of 1 μg/ml in a volume of 0.1 ml. Eighteen hours later, tritiated thymidine (0.01 ml) was added to the cultures, subsequently incubated for 3 hrs. […] Radioactivity (dpm) was measured 2 min. using a β-counter. […]

The test system of test [2] is hepatic GSH. The test is described as follows: Test No. 4: dichloropropane (DCP) intoxication in vivo, hepatic GSH. Details: species or system rat. How it is done: A test was carried out in vivo on four groups of four rats each, using, as a toxic substance, dichloropropane (DCP), the main constituent of several solvents. DCP is noxious both by ingestion and inhalation and has a notable toxicity to the liver, mediated by an almost total depletion of thiol groups, including those of GSH.
The experimental model involves the study of the effect of DCP toxicity in the rat, in respect of glutathione (GSH) concentration in the main target tissue: the liver.
Tests were carried out on four groups of rats. The first group of animals was administered 2 ml DCP/kg dissolved in oil (40% v/v) per os. Twenty-four hours after DCP administration, blood samples were taken for SGPT measurement, while the animals were sacrificed; small portions of liver were then excised and immediately deproteinized by homogenization in 6% PCA. The chromatographic analyses of GSH and GSSG (oxidized glutathione) were performed.
The second group of animals was treated with the test drug (600 mg/kg i.p.) two hours after DCP administration. The third and fourth groups were treated with N-acetyl-cysteine (NAC) (250 mg/kg i.p.) and, respectively, with glutathione (Tationil^R) (600 mg/kg i.p.).
An evaluation of the protective action of the test drug in respect of glutathione involvement in hepatic protection mechanisms was thus possible.

Test [3] concerns reactive oxygen species (ROS) production of human spermatozoa. The test is described as follows: Effect of PSC on the spermatic production of free radicals (chemiluminescence with luminol). The test is classed as cell-based. From the text:
Free radicals production was investigated under basal and maximal conditions (after A23187 addition) on controls and in the presence of PSC.
A23187 is an ionophore bivalent cation that, under physiological conditions, promotes acrosomial reaction. It is used being capable of stimulating the production of superoxide radicals (Aitken R. J. et al., Generation of reactive oxygen species, lipid peroxidation and human sperm function, J. of Reproduction, 40, 183-197, 1989).
Seminal fluid was obtained from 11 donors previously subjected to a complete medical check-up, to exclude the presence, if any, of sexual transmission diseases. Samples were obtained by masturbation and analysed within 1.5 hrs thereafter.
Spermatozoa were separated from seminal fluid by three centrifugation cycles (500×g for 5 min) and resuspended in medium BWW (Biggers et al., "The culture of mouse embryos in vitro", Daniel J. C. ed., Methods in mammalian embryology, 86-116, 1971) at a concentration of 20×10^6 /ml.
The production of reactive oxygen species (ROS) was evaluated by chemiluminescence with luminol: human spermatozoa suspensions at a concentration of […] in a volume of 500 μl were subjected to the action of luminol (LM 100 mmol/l in dimethyl sulphoxide).Said spermatic suspension was then diluted with 500 μl of medium BWW alone (control) or containing PSC (10 mM); other spermatic suspensions contained A23187 (0.05 mg/ml) alone (positive control) and, respectively, A23187 (0.05 mg/ml)+PSC (10 mM).
3 Minutes later, the chemiluminescent signal was recorded. Reactive oxygen species (ROS) production was expressed as photons brust (cpm) recorded by a luminometer Berthold L 9500.

In test [4] the test system is murine fibrosarcoma cells (WEHI 164 clone 13). The test is described as follows: Transplantable neoplasms: murine fibrosarcoma tumoral mass growth in BALB/c mice. The test is classed as in vivo. The protocol: Male adult BALB/c mice weighing 20 g were stabled under standard conditions (24°±1° C., 12 h light/dark cycle, free access to food and water). Handlings were made in such a way as to avoid stressful stimuli.
All animals, subdivided into groups of 6, were treated 4 weeks with a PSC dose (600 mg/kg). After a 2 week treatment, the mice were inoculated intramuscularly (i.m.) with murine fibrosarcoma WEHI 164 clone 13 cells or Lewis lung carcinoma in an amount of 1×10^5 cells. Treatment was continued two weeks after tumour inoculation. The mice were sacrificed and the tumoral mass growth and the development of metastases, if any, were evaluated.

As for `CC(=O)SC[C@H](NC(=O)[C@@H]1CCC(=O)N1)C(=O)O` [PSC, 2-(S)-(2-pyrrolidone-5-(S)-carbonyl amido)-3-acetylmercapto propionic acid] (HELM PEPTIDE1{[Glp].C}|PEPTIDE2{[ac]}$PEPTIDE1,PEPTIDE2,2:R3-1:R2$$$V2.0), in test [1], the “blastization (tritiated thymidine incorporation), Young” value worked out at 703 ± 44 DPM × 100. The “blastization (tritiated thymidine incorporation), Elderly” value in test [1] (*P < 0.05) is reported as 533 ± 29 DPM × 100. Besides, in test [2] (DCP-treated rats), the “normalization of hepatic GSH (in words)” value is on record as “could not normalize the values of hepatic GSH”. In test [2] (liver, DCP 2 ml/kg per os + 600 mg/kg i.p.), the “GSH, average values” came out at 2.7 nmol/mg protein. Besides, the “GSH, individual animals” value in test [2] (liver, DCP 2 ml/kg per os + 600 mg/kg i.p., animals 1-4, listed as (I) (R = CH3), 600 mg/kg) is 2.6 nmol/mg protein and 2.4 nmol/mg protein and 3.4 nmol/mg protein. Also, the “free radicals production (in words)” value in test [3] (basal and maximal conditions) is reported as “caused a significant reduction in free radicals production”. Moreover, the “ROS production, photons brust” value in test [3] (medium + A23187 (0.05 mg/ml) + PSC (10 mM)) was 270.8 +/- 254 cpm; in test [3] (medium + PSC (10 mM), basal), 243.7 +/- 235.2 cpm. In addition, in test [4] (600 mg/kg), the “tumoural growth, fibrosarcoma (in words)” value is “prevented tumoural growth; also recorded: significantly slows down the growth of fibrosarcomatous tumours in the rat”. Further, the “Tumoral mass diameter, 15th day” value in test [4] (600 mg/kg i.p., 30 days' treatment) came to 0.6 ± 0.03 cm.
